Assay results published in patent US11319320B2, “PIM kinase inhibitor compositions, methods, and uses thereof” (Snap Bio, Inc., priority 2017, dated 2022).
“And” between values parts separate entries of the source, which are not always exact repeats. Equal entries are not always repeated. Where two headings read alike, the source gives them in different places.

How the values were obtained:
PIM2 [1] = target: T1, PIM2 (Homo sapiens, UniProt Q9P1W9); test: KINOMEscan competition binding assay (Kd); conditions: run in duplicate
PIM1 [2] = target: T2, PIM1 (Homo sapiens, UniProt P11309); test: KINOMEscan competition binding assay (Kd)
PIM1 [3] = target: T2, PIM1; test: Biochemical kinase assay, radiolabeled ATP filter binding (Reaction Biology); conditions: 10 μM ATP, peptide substrate […]
PIM2 [4] = target: T1, PIM2; test: as above; conditions: 10 μM ATP, peptide substrate […]
PIM3 [5] = target: T3, PIM3 (Homo sapiens, UniProt Q86V86); test: as above; conditions: 10 μM ATP, peptide substrate RSRHSSYPAGT
PIM3 [6] = target: T3, PIM3; test: KINOMEscan competition binding assay (Kd); conditions: run in duplicate
PANC-1 = test: Cell Titer-Glo 2.0 luminescent cell viability assay; format: cell-based, human; conditions: 72 hour incubation, cell viability (ATP luminescence)
Protocol: To obtain growth inhibition data of endodermal cancer cells for PIM kinase inhibitors, Compound 122 was tested against SNU-16, HepG2, MIA PaCa-2, SW480, DU145, HEK-293, PANC-1, and THLE-3 cell lines using CELL TITER-GLO® 2.0 Luminescent Cell Viability Assay (Promega Corporation, Madison, Wis.) at Reaction Biology Corporation (Maven, Pa.). All cell lines were purchased from American Type Culture Collection (ATCC, Manassas, Va.) and maintained in the recommended culture media in the presence of 10% fetal bovind serum, […] of penicillin and 100 µg/mL of streptomycin at 37° C. in a humidified atmosphere of 5% CO2 and 95% air. To initiate the growth inhibition study, Compound 122 was diluted in DMSO solution with 10-dose and 3-fold dilutions in a source plate starting at 50 mM. […] The cells in the cell culture plates were incubated with the compounds at 37° C. for 72 hours in a humidified atmosphere of 5% CO2 and 95% air. After a 72 hour incubation period, 25 μl of Cell Titer Glo 2.0 reagent was added to each well. The contents were mixed on an orbital shaker for 2 minutes and incubated at room temperature for 15 minutes to stabilize the luminescent signal. Luminescence was recorded by Envision 2104 Multilabel Reader (PerkinElmer, Santa Clara, Calif.). The number of viable cells in culture was determined based on quantitation of the ATP present in each culture well. […]

DU145 = test: as above; format: cell-based; conditions: Homo sapiens, DU-145; 72 hour incubation, cell viability (ATP luminescence)
Protocol: (§1) To obtain growth inhibition data of endodermal cancer cells for PIM kinase inhibitors, Compound 122 was tested against SNU-16, HepG2, MIA PaCa-2, SW480, DU145, HEK-293, PANC-1, and THLE-3 cell lines using CELL TITER-GLO® 2.0 Luminescent Cell Viability Assay (Promega Corporation, Madison, Wis.) at Reaction Biology Corporation (Maven, Pa.). All cell lines were purchased from American Type Culture Collection (ATCC, Manassas, Va.) and maintained in the recommended culture media in the presence of 10% fetal bovind serum, […] of penicillin and 100 µg/mL of streptomycin at 37° C. in a humidified atmosphere of 5% CO2 and 95% air. To initiate the growth inhibition study, Compound 122 was diluted in DMSO solution with 10-dose and 3-fold dilutions in a source plate starting at 50 mM. […] The cells in the cell culture plates were incubated with the compounds at 37° C. for 72 hours in a humidified atmosphere of 5% CO2 and 95% air. After a 72 hour incubation period, 25 μl of Cell Titer Glo 2.0 reagent was added to each well. The contents were mixed on an orbital shaker for 2 minutes and incubated at room temperature for 15 minutes to stabilize the luminescent signal. Luminescence was recorded by Envision 2104 Multilabel Reader (PerkinElmer, Santa Clara, Calif.). The number of viable cells in culture was determined based on quantitation of the ATP present in each culture well. […] Table 5 lists the IC50 values for Compound 122 in the tested cell lines.

HEK-293 = test: as above; format: cell-based; conditions: Homo sapiens, HEK293; 72 hour incubation, cell viability (ATP luminescence)
Protocol: as §1

SNU-16 = test: as above; format: cell-based; conditions: Homo sapiens, 72 hour incubation, cell viability (ATP luminescence)
Protocol: as §1

SW480 = test: as above; format: cell-based; conditions: Homo sapiens, 72 hour incubation, cell viability (ATP luminescence)
Protocol: as §1

THLE-3 = test: as above; format: cell-based; conditions: THLE3; 72 hour incubation, cell viability (ATP luminescence)
Protocol: as §1

MIA PaCa-2 = test: as above; format: cell-based; conditions: Homo sapiens, 72 hour incubation, cell viability (ATP luminescence)
Protocol: as §1

HepG2 = test: as above; format: cell-based; conditions: Homo sapiens, 72 hour incubation, cell viability (ATP luminescence)
Protocol: as §1

[7] = competition binding, run in duplicate, read-out: Kd PIM1
[8] = competition binding, read-out: Kd PIM3

Row | Structure (SMILES) | Kd (PIM2 [1]) | Kd (PIM1 [2]; [7]) | IC50 (PIM2 [4]) | IC50 (PIM3 [5]) | Kd (PIM3 [6]; [8]) | also measured
1 | O=C1NC(=O)c2c1c1c3ccccc3[nH]c1c1[nH]c3ccccc3c21 [Arcyriaflavin A, 12,13-dihydro-5H-indolo[2,3-a]pyrrolo[3,4-c]carbazole-5,7(6H)-dione, reference compound] | 19 nM | 0.021 µM | 21 nM | 0.3 nM | 2 nM and 1.9 nM | IC50 (PIM1 [3]): 2.2 nM
2 | O=C1NC(=O)c2c1c1c3ccccc3[nH]c1c1c2c2ccccc2n1CCN1CCOCC1 [Compound 3, 12,13-dihydro-12-(2-(4-morpholine)ethyl)-5H-Indolo[2,3-a]pyrrolo[3,4-c]carbazole-5,7(6H)-dione] | – | – | 138 nM | 0.2 nM | – | IC50 (PIM1 [3]): 1.6 nM
3 | O=C1NC(=O)c2c1c1c3ccc(O)cc3[nH]c1c1[nH]c3cc(O)ccc3c21 [Compound 122] | 9 nM | 0.011 µM | 5.4 nM | 0.03 nM | 3 nM | IC50 PANC-1 (PANC-1): no inhibition; IC50 (DU145): 2330 nM; IC50 (HEK-293): 2700 nM; IC50 (SNU-16): 700 nM; IC50 (SW480): 2890 nM; IC50 (THLE-3): 4620 nM; IC50 (MIA PaCa-2): 4810 nM; IC50 (HepG2): 970 nM; IC50 (PIM1 [3]): 0.5 nM
4 | O=C1NC(=O)c2c1c1c3cccc(O)c3[nH]c1c1[nH]c3c(O)cccc3c21 [Compound 123] | 84 nM | 0.13 µM | 55 nM | 0.2 nM | 6.4 nM | IC50 (PIM1 [3]): 3.9 nM
5 | O=C1NC(=O)c2c1c1c([nH]c3cccc(F)c31)c1[nH]c3cccc(F)c3c21 [Compound 128] | 260 nM | 0.28 µM | – | – | 24 nM | –
6 | O=C1NC(=O)c2c1c1c3cc(F)ccc3[nH]c1c1[nH]c3ccc(F)cc3c21 [Compound 129, 3,9-difluoro-arcyriaflavin A] | 77 nM | – | – | – | 27 nM | Kd (PIM1 [2]; text value printed in μM, read-out: Kd for PIM1): 2.5 µM
7 | O=C1NC(=O)c2c1c1c3ccc(F)cc3[nH]c1c1[nH]c3cc(F)ccc3c21 [Compound 130] | 150 nM | 0.7 µM | – | – | 48 nM | –
8 | O=C1NC(=O)c2c1c1c3cccc(F)c3[nH]c1c1[nH]c3c(F)cccc3c21 [Compound 131] | 2600 nM | 6.3 µM | – | – | 130 nM | –
9 | O=C1NC(=O)c2c1c1c3cc(Br)ccc3[nH]c1c1[nH]c3ccc(Br)cc3c21 [Compound 137] | > 10000 nM | > 10 µM | – | – | > 10000 nM | –
10 | O=C1NC(=O)c2c1c1c3ccc(Br)cc3[nH]c1c1[nH]c3cc(Br)ccc3c21 [Compound 138] | > 10000 nM | > 10 µM | – | – | > 10000 nM | –
11 | O=C1NC(=O)c2c1c1c3cccc(Br)c3[nH]c1c1[nH]c3c(Br)cccc3c21 [Compound 139] | > 3000 nM | > 3 µM | – | – | > 3000 nM | –
12 | N#Cc1ccc2c(c1)[nH]c1c3[nH]c4cc(C#N)ccc4c3c3c(c21)C(=O)NC3=O [Compound 146] | > 10000 nM | > 10 µM | – | – | > 10000 nM | –
13 | N#Cc1cccc2c1[nH]c1c3[nH]c4c(C#N)cccc4c3c3c(c21)C(=O)NC3=O [Compound 147] | > 3000 nM | > 3 µM | – | – | > 3000 nM | –
14 | COC(=O)[C@@]1(O)C[C@H]2O[C@]1(C)n1c3ccccc3c3c4c(c5c6ccccc6n2c5c31)C(=O)NC4 [Compound K252a, K252a, reference compound] | – | – | – | – | – | Kd (PIM3 [6]; Kd PIM3, competition binding): ~10 nM
15 | CN(C)C[C@@H]1CCn2cc(c3ccccc32)C2=C(C(=O)NC2=O)c2cn(c3ccccc23)CCO1 [Ruboxistaurin, ruboxistaurin, reference compound] | – | – | 7650 nM | 10 nM | – | –
